Measured values from patent US20140011853A1, “SUBSTITUTED 3-(BIPHENYL-3-YL)-8,8-DIFLUORO-4-HYDROXY-1-AZASPIRO[4.5]DEC-3-EN-2-ONES FOR THERAPY” (BAYER INTELLECTUAL PROPERTY GMBH, priority 2011, published 2014).
“And” between values parts separate entries of the source, which are not always exact repeats. Equal entries are not always repeated.

Experiments:
human ACC1 [1] = biological target: T1, human ACC1 (Homo sapiens, UniProt Q13085); experiment: Human ACC1 enzyme assay (ADP-Glo); assay type: biochemical; details: individual measurements; read-out: ACC 1 IC50
T1 construct: FLAG (C); made in house; host or cells: baculovirus-infected insect cells (Hi5)

human ACC1 [2] = experiment: Human ACC1 enzyme assay (ADP-Glo); assay type: biochemical; details: for Ratio of IC50s ACC2/ACC1 (respective measurement): pairwise, same dilution series
KM12 = experiment: Tumour cell proliferation, CellTiter-Glo, 96-hour incubation, KM12; assay type: cell-based; details: Homo sapiens, KM12, 96 h; read-out: KM12 IC50
Description: (§1) In accordance with the invention, the substances were tested in cell-based assays for the ability of the substances of inhibiting tumour cell proliferation after a 96-hour incubation with the substance. Cell viability was tested using the CellTiter-Glo® luminescent cell viability assay (Promega). The cells were sown at a density of 2000-5000 cells/well (depending on the cell line) in 100 μl growth medium on 96-well microtiter plates. For each cell line examined, cells were sown on a separate plate to determine the luminescence at t=0 hours and t=96 hours. After overnight incubation at 37° C., the luminescence values for the t=0 samples were determined. The dose plates for the t=96 hours points in time were treated with substances diluted with growth medium. The cells were then incubated at 37° C. for 96 hours, and the luminescence values for the t=96 hours samples were then determined. For data analysis, the t=0 values were subtracted from the t=96 hours values for treated and untreated samples. The differences in luminescence in percent between substance-treated samples and control values were used to determine the growth inhibition in percent.
(§2) The substances were tested in the following cell lines which represent the stated indications in an exemplary manner: […]

PC3 = experiment: Tumour cell proliferation, CellTiter-Glo, 96-hour incubation, PC3; assay type: cell-based; details: Homo sapiens, PC-3, 96 h; read-out: PC3 IC50
Description: as §1, §2

H460 = experiment: Tumour cell proliferation, CellTiter-Glo, 96-hour incubation, H460; assay type: cell-based; details: Homo sapiens, NCI-H460, 96 h; read-out: H460 IC50
Description: as §1, §2

MCF7 = experiment: Tumour cell proliferation, CellTiter-Glo, 96-hour incubation, MCF7; assay type: cell-based; details: Homo sapiens, MCF7, 96 h; read-out: MCF7 IC50
Description: as §1, §2

[3] = Octanol/water distribution coefficient (logP/D), isocratic HPLC method; assay type: physicochemical; details: pH 7.4
Excerpt: Assay for Determining the Octanol/Water Distribution Coefficient (logP/D):
The distribution coefficient octanol/water P or D is a key parameter for estimating membrane penetration and permeability. It is defined as the ratio of the equilibrium concentrations of a substance in the two-phase system octanol/water.
It is usually stated in form of the decadic logarithm (logP or logD).
logP describes the distribution behaviour of a substance exclusively present in its neutral form. logD describes the distribution behaviour of a substance at a certain pH; depending on the ionization constant pKa of the substance, some of the substance may be present in ionic form, and some in neutral form.
The logP/D of the active compounds was determined using an isocratic HPLC method (HPLC=high performance liquid chromatography) (literature: OECD Guideline for Testing of Chemicals No. 117). The method is based on the correlation of the HPLC retention time of the test substance to that of reference substances with known distribution coefficients.
The test substance was employed as a 10 mM solution in DMSO (DMSO=dimethyl sulphoxide). 10 μl of this solution were made up to 100 μl with a methanol/water mixture in a ratio of 7+3.
The nine reference substances were dissolved individually in methanol. 100 μl each of the stock solutions were added to an HPLC vial and mixed with 300 μl of water.
A formamide solution was used to determine the hold-up time. To this end, 7 mg of formamide were dissolved in 10 ml of methanol. 100 μl of this stock solution were mixed with 500 μl of methanol and 200 μl of water.
All solutions were chromatographed using a flow rate of 1.00 ml/min.
Injection Protocol: formamide, references, test substance 1, test substance 2, . . . , formamide, references.
Evaluation of the retention times was carried out in a diode array detector (DAD) at 200-400 nm Via the molecular mass, the identity of the test substance was checked using the downstream mass spectrometer.
The HPLC run was evaluated using the Waters software Masslynx 4.1.
The logP/D values were calculated using the software “POW Determination” (proprietary development).

[4] = Membrane affinity logMA (MA-Transil); assay type: physicochemical; details: buffer pH 7.4
human ACC2 = human ACC2 (Homo sapiens, UniProt O00763); experiment: Human ACC2 enzyme assay (ADP-Glo); details: ACC 2 IC50, individual measurements
[5] = biological target: human serum albumin (HSA) (Homo sapiens, UniProt P02768); experiment: Protein binding to human serum albumin (HSA-Transil)
Spodoptera frugiperda = Spodoptera frugiperda test (SPODFR spray treatment); assay type: in vivo; details: 500 g/ha, after 7 days
Myzus persicae = experiment: Myzus test (MYZUPE spray treatment); assay type: in vivo; details: for pest or weed control at 500 g/ha / effect (kill of aphids): after 6 days, 500 g/ha; for pest or weed control at 500 g/ha: read-out: effect (kill of aphids)
Excerpt: Disks of Chinese cabbage (Brassica pekinensis) infested by all stages of the green peach aphid (Myzus persicae) are sprayed with an active compound formulation of the desired concentration.

Tetranychus urticae = experiment: Tetranychus test, OP-resistant (TETRUR spray treatment); assay type: in vivo; details: for pest or weed control at 100 g/ha / effect (kill of spider mites): after 6 days; for pest or weed control at 100 g/ha: read-out: effect (kill of spider mites)
Phaedon cochleariae = experiment: Phaedon test (PHAECO spray treatment); details: for effect (kill of beetle larvae): 500 g/ha, after 7 days
[6] = Tetranychus urticae, 144 h, 100 g/ha

human ACC2, sequence (O00763 27-2458 limits assumed): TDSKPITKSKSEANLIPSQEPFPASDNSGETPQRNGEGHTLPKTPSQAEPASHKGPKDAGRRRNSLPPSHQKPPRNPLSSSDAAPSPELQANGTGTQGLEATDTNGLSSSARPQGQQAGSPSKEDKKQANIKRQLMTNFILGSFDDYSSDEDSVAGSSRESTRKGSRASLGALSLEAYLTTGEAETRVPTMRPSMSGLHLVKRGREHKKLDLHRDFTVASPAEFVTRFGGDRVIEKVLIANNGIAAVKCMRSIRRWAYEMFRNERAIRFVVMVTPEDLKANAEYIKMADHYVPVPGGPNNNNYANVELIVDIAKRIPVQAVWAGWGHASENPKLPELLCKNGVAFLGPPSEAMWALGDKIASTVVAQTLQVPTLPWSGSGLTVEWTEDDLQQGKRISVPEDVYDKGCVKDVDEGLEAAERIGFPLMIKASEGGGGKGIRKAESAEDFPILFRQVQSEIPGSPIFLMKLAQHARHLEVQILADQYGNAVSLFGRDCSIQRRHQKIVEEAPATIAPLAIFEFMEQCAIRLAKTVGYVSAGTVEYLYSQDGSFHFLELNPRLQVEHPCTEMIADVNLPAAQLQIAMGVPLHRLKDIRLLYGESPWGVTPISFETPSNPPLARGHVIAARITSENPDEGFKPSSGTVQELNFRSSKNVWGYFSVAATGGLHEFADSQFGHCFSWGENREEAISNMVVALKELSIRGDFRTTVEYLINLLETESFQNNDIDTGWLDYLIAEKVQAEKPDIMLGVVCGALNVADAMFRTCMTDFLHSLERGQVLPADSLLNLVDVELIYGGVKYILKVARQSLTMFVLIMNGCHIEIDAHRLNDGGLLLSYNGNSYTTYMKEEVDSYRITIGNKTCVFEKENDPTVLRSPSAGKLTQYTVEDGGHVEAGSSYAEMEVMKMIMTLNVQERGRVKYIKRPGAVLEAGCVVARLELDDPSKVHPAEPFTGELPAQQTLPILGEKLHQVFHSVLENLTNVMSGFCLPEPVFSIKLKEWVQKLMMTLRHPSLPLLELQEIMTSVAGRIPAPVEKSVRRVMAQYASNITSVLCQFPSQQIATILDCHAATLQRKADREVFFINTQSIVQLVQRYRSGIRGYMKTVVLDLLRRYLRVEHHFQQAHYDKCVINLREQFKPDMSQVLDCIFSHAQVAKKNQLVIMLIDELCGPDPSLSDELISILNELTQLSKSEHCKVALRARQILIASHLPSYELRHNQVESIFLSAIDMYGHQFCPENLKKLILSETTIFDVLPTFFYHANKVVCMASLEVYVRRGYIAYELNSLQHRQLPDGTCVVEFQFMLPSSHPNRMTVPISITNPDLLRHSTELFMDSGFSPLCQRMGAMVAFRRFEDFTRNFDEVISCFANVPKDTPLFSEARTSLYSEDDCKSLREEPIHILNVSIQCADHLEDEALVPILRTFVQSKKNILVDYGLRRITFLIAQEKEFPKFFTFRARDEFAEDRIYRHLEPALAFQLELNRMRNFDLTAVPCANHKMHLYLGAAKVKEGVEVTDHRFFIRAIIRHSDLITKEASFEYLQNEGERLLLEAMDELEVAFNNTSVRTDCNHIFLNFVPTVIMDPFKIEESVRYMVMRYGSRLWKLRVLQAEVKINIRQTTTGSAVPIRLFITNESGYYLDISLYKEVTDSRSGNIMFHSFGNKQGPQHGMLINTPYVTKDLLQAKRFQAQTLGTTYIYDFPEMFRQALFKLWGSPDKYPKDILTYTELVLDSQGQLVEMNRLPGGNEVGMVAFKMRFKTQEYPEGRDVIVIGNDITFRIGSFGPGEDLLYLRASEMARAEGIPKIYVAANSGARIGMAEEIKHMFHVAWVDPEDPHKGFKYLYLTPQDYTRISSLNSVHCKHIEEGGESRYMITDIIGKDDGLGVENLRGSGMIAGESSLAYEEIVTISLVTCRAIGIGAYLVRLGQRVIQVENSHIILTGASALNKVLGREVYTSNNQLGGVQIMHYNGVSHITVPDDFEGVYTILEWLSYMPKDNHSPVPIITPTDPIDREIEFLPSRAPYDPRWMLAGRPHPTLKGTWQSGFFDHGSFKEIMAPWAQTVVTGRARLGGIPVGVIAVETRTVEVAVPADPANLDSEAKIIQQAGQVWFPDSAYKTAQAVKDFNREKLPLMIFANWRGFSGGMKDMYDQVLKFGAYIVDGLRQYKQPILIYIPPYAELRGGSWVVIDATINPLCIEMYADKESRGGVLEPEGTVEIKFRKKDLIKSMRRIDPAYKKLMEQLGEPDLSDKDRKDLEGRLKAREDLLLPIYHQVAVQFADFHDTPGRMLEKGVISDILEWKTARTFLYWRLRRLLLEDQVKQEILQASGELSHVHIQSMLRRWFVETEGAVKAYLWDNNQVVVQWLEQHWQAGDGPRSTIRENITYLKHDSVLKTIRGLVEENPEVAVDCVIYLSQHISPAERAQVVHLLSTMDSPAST
human serum albumin (HSA), sequence (P02768 25-609): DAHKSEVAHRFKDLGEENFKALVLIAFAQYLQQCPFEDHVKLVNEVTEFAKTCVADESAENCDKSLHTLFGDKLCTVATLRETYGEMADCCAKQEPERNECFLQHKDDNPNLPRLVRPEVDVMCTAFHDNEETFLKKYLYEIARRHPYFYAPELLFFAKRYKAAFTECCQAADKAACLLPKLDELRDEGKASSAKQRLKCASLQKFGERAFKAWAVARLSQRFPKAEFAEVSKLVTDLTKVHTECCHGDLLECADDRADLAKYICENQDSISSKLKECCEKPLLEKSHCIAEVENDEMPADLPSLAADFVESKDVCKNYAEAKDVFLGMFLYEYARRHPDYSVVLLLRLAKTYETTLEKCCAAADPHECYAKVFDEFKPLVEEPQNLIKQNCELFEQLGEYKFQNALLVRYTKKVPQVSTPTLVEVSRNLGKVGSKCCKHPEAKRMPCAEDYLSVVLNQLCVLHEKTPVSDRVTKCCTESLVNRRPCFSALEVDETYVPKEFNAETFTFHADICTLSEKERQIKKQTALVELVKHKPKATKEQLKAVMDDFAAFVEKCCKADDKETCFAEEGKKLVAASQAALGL

| SMILES | effect (kill of caterpillars) (Spodoptera frugiperda) [%] | pest or weed control at 500 g/ha (Myzus persicae; Myzus persicae, 144 h) [%] | pest or weed control at 100 g/ha (Tetranychus urticae; [6]) [%] | effect (kill of beetle larvae) (Phaedon cochleariae) [%] | effect (kill of aphids) (Myzus persicae) [%] | also measured |
| --- | --- | --- | --- | --- | --- | --- |
| Cc1ccc(-c2ccc(Cl)c(F)c2)cc1C1=C(O)[C@]2(CC[C@H](C(F)(F)F)CC2)NC1=O [V.1-a, (5s,8s)-3-(4′-Chloro-3′-fluoro-4-methylbiphenyl-3-yl)-4-hydroxy-8-(trifluoromethyl)-1-azaspiro[4.5]dec-3-en-2-one, reference compound] | – | – | – | – | – | IC50 (human ACC1 [1]): 0.067 µM and 0.059 µM; Selectivity ACC1 vs. ACC2 (mean of the individual measurements ± standard deviation) (human ACC1 [2]): 9.4 ± 0.8; Ratio of IC50s ACC2/ACC1 (respective measurement) (human ACC1 [2]): 8.6 and 10.3; IC50 (KM12): 0.245 µM; IC50 (PC3): 0.398 µM; IC50 (H460): 0.573 µM; IC50 (MCF7): 0.03 µM; chromatographic logP [3]: 2.55; logMA [4]: 2.55 (2.4-2.7, n = 2); IC50 (human ACC2): 0.58 µM and 0.61 µM; Kd [5]: 1.43 µM |
| O=C1NC2(CCC(F)(F)CC2)C(O)=C1c1cc(-c2ccc(Cl)cc2)ccc1Cl [Example 1-4, 3-(4,4′-Dichlorobiphenyl-3-yl)-8,8-difluoro-4-hydroxy-1-azaspiro[4.5]dec-3-en-2-one] | 100 | 90 | 90 | 100 | – | IC50 (human ACC1 [1]): 0.121 µM and 0.091 µM; Selectivity ACC1 vs. ACC2 (mean of the individual measurements ± standard deviation) (human ACC1 [2]): 39.7 ± 5.7; Ratio of IC50s ACC2/ACC1 (respective measurement) (human ACC1 [2]): 45.5 and 34.0; IC50 (KM12): 0.319 µM; IC50 (PC3): 0.231 µM; IC50 (H460): 0.481 µM; IC50 (MCF7): 0.086 µM; IC50 (human ACC2): 5.48 µM and 3.11 µM |
| CCc1cc(C)cc(C)c1C1=C(OC(=O)C(C)C)C2(CCC(F)(F)CC2)NC1=O [Example I-1-b-1] | – | 100 | 100 | – | – | – |
| Cc1ccc(-c2ccc(Cl)cc2)cc1C1=C(O)C2(CCC(F)(F)CC2)OC1=O [Example I-2-a-3] | 100 | – | – | 100 | 90 | – |
| Cc1cc(C)c(C2=C(O)C3(CCC(F)(F)CC3)NC2=O)c(C)c1 [Example I-1-a-1] | 83 | 100 | 100 | – | – | – |
| CCc1cc(C)cc(C)c1C1=C(O)C2(CCC(F)(F)CC2)NC1=O [Example I-1-a-11] | – | – | – | – | – | effect (kill of spider mites) (Tetranychus urticae; 100 g/ha): 100% |
| Cc1cc(OCC(F)(F)F)cc(C)c1C1=C(O)C2(CCC(F)(F)CC2)NC1=O [Example I-1-a-8] | – | 100 | 100 | 100 | – | – |
| Cc1cc(C)c(C2=C(O)C3(CCC(F)(F)CC3)OC2=O)c(C)c1 [Example I-2-a-4] | – | – | – | 100 | 100 | – |
| Cc1cc(Br)cc(C)c1C1=C(O)C2(CCC(F)(F)CC2)NC1=O [Example I-1-a-5] | – | – | – | 100 | 100 | effect (kill of spider mites) (Tetranychus urticae; 100 g/ha): 100% |
| Cc1ccc(Br)cc1C1=C(O)C2(CCC(F)(F)CC2)NC1=O [Example I-1-a-14, 3-(5-Bromo-2-methylphenyl)-8,8-difluoro-4-hydroxy-1-azaspiro[4.5]dec-3-en-2-one] | – | 100 | – | – | – | – |
| Cc1cc(Cl)cc(C)c1C1=C(O)C2(CCC(F)(F)CC2)NC1=O [Example I-1-a-7] | – | – | – | 100 | 100 | effect (kill of spider mites) (Tetranychus urticae; 100 g/ha): 100% |
| Cc1ccc(-c2ccc(F)cc2)cc1C1=C(O)C2(CCC(F)(F)CC2)NC1=O [Example 1-3, 8,8-Difluoro-3-(4′-fluoro-4-methylbiphenyl-3-yl)-4-hydroxy-1-azaspiro[4.5]dec-3-en-2-one] | 100 | 90 | 100 | 100 | – | IC50 (human ACC1 [1]): 0.166 µM and 0.241 µM; Selectivity ACC1 vs. ACC2 (mean of the individual measurements ± standard deviation) (human ACC1 [2]): >101.8 ± 19.0; Ratio of IC50s ACC2/ACC1 (respective measurement) (human ACC1 [2]): >120.8 and >82.8; IC50 (KM12): 0.578 µM; IC50 (PC3): 0.476 µM; IC50 (H460): 0.678 µM; IC50 (MCF7): 0.209 µM; IC50 (human ACC2): > 20 µM |
| Cc1cc(-c2ccc(Cl)cc2)cc(C)c1C1=C(O)C2(CCC(F)(F)CC2)NC1=O [Example I-1-a-9] | – | 100 | 100 | 100 | – | – |
| Cc1cc(C)c(C2=C(OC(=O)C(C)C)C3(CCC(F)(F)CC3)OC2=O)cc1C [Example I-2-b-1] | 83 | 100 | – | – | – | – |
| CCOC(=O)OC1=C(c2c(C)cc(C)cc2CC)C(=O)NC12CCC(F)(F)CC2 [Example I-1-c-1] | – | 90 | 100 | – | – | – |
| Cc1ccc(-c2ccc(F)cc2)c(C)c1C1=C(O)C2(CCC(F)(F)CC2)OC1=O [Example I-2-a-2] | 100 | – | – | 100 | 100 | effect (kill of spider mites) (Tetranychus urticae; 500 g/ha): 100% |
| Cc1ccc(-c2ccc(F)c(F)c2)cc1C1=C(O)C2(CCCCC2)NC1=O [prior art WO 2008/067911 Table 1, reference compound] | – | – | – | – | – | inhibition at 20 g/ha (Myzus persicae; Myzus persicae, 144 h, read-out: % activity MYZUPE): 0%; inhibition at 20 g/ha (Tetranychus urticae; Tetranychus urticae, 144 h, read-out: % activity TETRUR): 0%; inhibition at 20 g/ha (Phaedon cochleariae; Phaedon cochleariae, 168 h, read-out: % activity PHAECO): 0% |
| Cc1cc(Cl)cc(C)c1C1=C(O)C2(CC=C(F)CC2)NC1=O (stereo not drawn) [Example I-1-a-13] | – | – | – | 100 | 100 | effect (kill of spider mites) (Tetranychus urticae; 100 g/ha): 90% |
| Cc1cc(C)c(C2=C(O)C3(CCC(F)(F)CC3)OC2=O)cc1C [Example I-2-a-1] | – | 100 | – | – | – | – |
| Cc1ccc(-c2ccc(F)cc2)c(C)c1C1=C(O)C2(CC=C(F)CC2)NC1=O (stereo not drawn) [Example I-1-a-12] | 100 | – | – | 100 | 100 | effect (kill of spider mites) (Tetranychus urticae; 500 g/ha): 100% |
